{"source": "patent US3989837A", "about": "“Pharmaceutical compositions” (Chinoin Gyogyszer-es Vegyeszeti Termekek Gyara RT, priority 1972, dated 1976)", "key": {"[1]": {"test_system": "writhing", "experiment": "Analgesic effect, acetic acid writhing (Table 3)", "assay_type": "in vivo, mouse", "details": "male mice", "procedure": "Male mice weighing 15-18 g. and starved for 16 hours were used for the experiments. The drug was given orally, the control mice obtained a drug-free suspension. After 2 and 4 hours (2^h and 4^h respectively) the animals were injected with […], acetic acid solution (0.1 ml. per mouse) intraperitoneally. Upon the effect of the injection the animals reacted in a few minutes with writhing. […] Comparison of the number of writhes in the control and the treated animals served as a basis of evaluation of drug effect. Significance was calculated by Student's t test, and efficiency of the drug was expressed as per cent. Each experiment was performed on a group of 12-16 animals."}, "[2]": {"test_system": "granuloma formation", "experiment": "Cotton pellet granuloma (Table 2)", "assay_type": "in vivo, rat", "details": "male rats, 7 days", "procedure": "The experiments were performed on male rats weighing 140-160 g. In ether anaesthesia a […]. cotton pellet was placed in each of two subcutaneous pockets in the dorsal region of the animal. The drug was administered orally during a period of 7 days. The controls received a drugfree suspension. The doses seen in the Table were administered in two portions, in the morning and in the afternoon, respectively. On the 8th day the animals were killed and the pellets were dissected. After removal of fat and extraneous tissue, the pellets were dried for 5 hours at 50° C and weighed. The weight of the cotton pellet before implantation was subtracted from the weight of the dried, dissected pellet and drug efficiency was calculated from the obtained difference. Significance was calculated with Student's t test and drug effect was expressed as per cent."}, "[3]": {"test_system": "mice", "experiment": "Toxicity on mice by oral administration, once daily for 7 days (Table 4)", "assay_type": "in vivo", "details": "male mice", "procedure": "The experiments were performed on unstarved male mice of […]. body-weight.\nThe compound was administered in the form of 1% suspension stabilized with methylcellulose. […] The animals obtained the drug once daily over a period of 7 dyas, i.e. 168 hours. The number of deaths was registered each day. LD50 values were calculated according to Litchfield and Wilcoxon."}, "[4]": {"test_system": "kaolin oedema", "experiment": "Kaolin oedema test (Table 1)", "assay_type": "in vivo, rat", "set-up": "oedema, treated: unit not given here", "details": "female rats", "procedure": "The experiments were performed on female rats weighing 110-130 g. divided into groups of 10 animals. The rats were starved for 24 hours prior to the experiment. The test substance was administered orally, the controls obtained the suspending solution without the active ingredient. 1 hour following drug administration the animals were injected s.c. 0.1 ml. of a suspension of 5% kaolin into the foot pad. During the following period the inflammatory reaction is manifested by a swelling of the foot. The diameter of the foot of the treated and control animals was measured 2, 3.5 and 5 hours after s.c. injection of kaolin. The efficiency of the test compound was calculated from the difference of the diameter of the foot in the treated and control animals. Significance was calculated with Student's t test and the effect of the drug was expressed also as per cent."}, "[5]": {"test_system": "rats", "experiment": "Toxicity on rats after oral administration, 3 months (Table 2')", "assay_type": "in vivo, rat", "details": "for Perished animals/total animals, Sum / Perished animals/total animals: male rats", "procedure": "10 animals were treated with the substance in question for 3 months. […] A dosage corresponding to 20 mg./kg. of Indomethacine was added during the first, that corresponding to 40 mg./kg. of Indomethacine during the second, and that corresponding to 60 mg./kg. of Indomethacine during the third month. The animals of the control group received suspending agent only."}, "[6]": {"details": "oral 13.7 mg./kg., 2 h after kaolin"}, "[7]": {"details": "oral 13.7 mg./kg., 3.5 h after kaolin"}, "[8]": {"details": "oral 13.7 mg./kg., 5 h after kaolin"}, "[9]": {"details": "oral 34 mg./kg., 2 h after kaolin"}, "[10]": {"details": "oral 34 mg./kg., 3.5 h after kaolin"}, "[11]": {"details": "oral 34 mg./kg., 5 h after kaolin"}, "[12]": {"details": "oral 51 mg./kg., 2 h after kaolin"}, "[13]": {"details": "oral 51 mg./kg., 3.5 h after kaolin"}, "[14]": {"details": "oral 51 mg./kg., 5 h after kaolin"}}, "note": "Values joined by “and” are separate entries in the source; they are usually repeats but may differ in a detail not shown here. Identical values can stand only once."}
{"smiles": "COc1ccc2c(c1)c(CC(=O)OCC(Cl)(Cl)Cl)c(C)n2C(=O)c1ccc(Cl)cc1", "note": "[Example 5, 1-(p-chlorobenzoyl)-2-methyl-5-methoxy-indol-3-yl-acetic-acid trichloroethyl ester]", "values": [{"measurement": "Analgesic effect", "setting": "[1]; oral 5 mg./kg., 2 h", "result": "29.0% and 20.7%"}, {"measurement": "number of writhes, treated", "setting": "[1]; oral 5 mg./kg., 2 h", "result": "28.0±9.5 and 41.1±12.2"}, {"measurement": "Analgesic effect", "setting": "[1]; oral 5 mg./kg., 4 h", "result": "18.6% and 20.1%"}, {"measurement": "number of writhes, treated", "setting": "[1]; oral 5 mg./kg., 4 h", "result": "32.1±12.4 and 41.4±12.6"}, {"measurement": "Analgesic effect", "setting": "[1]; oral 17 mg./kg., 2 h", "result": "60.8% and 51.4%"}, {"measurement": "Analgesic effect", "setting": "[1]; oral 17 mg./kg., 4 h", "result": "56.7% and 51.0%"}, {"measurement": "number of writhes, treated", "setting": "[1]; oral 17 mg./kg., 4 h", "result": "13.7±10.7 and 20.6±12.3"}, {"measurement": "Inhibition of granuloma formation", "setting": "[2]; oral 5.5 mg./kg.", "result": 19.5, "unit": "%"}, {"measurement": "granuloma tissue, treated", "setting": "[2]; oral 5.5 mg./kg.", "result": "56.7±11.1"}, {"measurement": "Inhibition of granuloma formation", "setting": "[2]; oral 11 mg./kg.", "result": 24.8, "unit": "%"}, {"measurement": "granuloma tissue, treated", "setting": "[2]; oral 11 mg./kg.", "result": "52.0±17.8"}, {"measurement": "Number of deaths/number of treated animals", "setting": "[3]; oral 1000 mg/kg, 24 h", "result": "0/10"}, {"measurement": "Number of deaths/number of treated animals", "setting": "[3]; oral 1000 mg/kg, 48 h", "result": "0/10"}, {"measurement": "Number of deaths/number of treated animals", "setting": "[3]; oral 1000 mg/kg, 72 h", "result": "0/10"}, {"measurement": "Number of deaths/number of treated animals", "setting": "[3]; oral 1000 mg/kg, 96 h", "result": "0/10"}, {"measurement": "Number of deaths/number of treated animals", "setting": "[3]; oral 1000 mg/kg, 120 h", "result": "0/10"}, {"measurement": "Number of deaths/number of treated animals", "setting": "[3]; oral 1000 mg/kg, 144 h", "result": "0/10"}, {"measurement": "Number of deaths/number of treated animals", "setting": "[3]; oral 1000 mg/kg, 168 h", "result": "0/10"}, {"measurement": "Number of deaths/number of treated animals", "setting": "[3]; oral 1500 mg/kg, 24 h", "result": "0/10"}, {"measurement": "Number of deaths/number of treated animals", "setting": "[3]; oral 1500 mg/kg, 48 h", "result": "0/10"}, {"measurement": "Number of deaths/number of treated animals", "setting": "[3]; oral 1500 mg/kg, 72 h", "result": "0/10"}, {"measurement": "Number of deaths/number of treated animals", "setting": "[3]; oral 1500 mg/kg, 96 h", "result": "0/10"}, {"measurement": "Number of deaths/number of treated animals", "setting": "[3]; oral 1500 mg/kg, 120 h", "result": "0/10"}, {"measurement": "Number of deaths/number of treated animals", "setting": "[3]; oral 1500 mg/kg, 144 h", "result": "0/10"}, {"measurement": "Number of deaths/number of treated animals", "setting": "[3]; oral 1500 mg/kg, 168 h", "result": "0/10"}, {"measurement": "Number of deaths/number of treated animals", "setting": "[3]; oral 2000 mg/kg, 24 h", "result": "0/10"}, {"measurement": "Number of deaths/number of treated animals", "setting": "[3]; oral 2000 mg/kg, 48 h", "result": "0/10"}, {"measurement": "Number of deaths/number of treated animals", "setting": "[3]; oral 2000 mg/kg, 72 h", "result": "2/10"}, {"measurement": "Number of deaths/number of treated animals", "setting": "[3]; oral 2000 mg/kg, 96 h", "result": "2/10"}, {"measurement": "Number of deaths/number of treated animals", "setting": "[3]; oral 2000 mg/kg, 120 h", "result": "4/10"}, {"measurement": "Number of deaths/number of treated animals", "setting": "[3]; oral 2000 mg/kg, 144 h", "result": "6/10"}, {"measurement": "Number of deaths/number of treated animals", "setting": "[3]; oral 2000 mg/kg, 168 h", "result": "6/10"}, {"measurement": "Number of deaths/number of treated animals", "setting": "[3]; oral 2500 mg/kg, 24 h", "result": "0/10"}, {"measurement": "Number of deaths/number of treated animals", "setting": "[3]; oral 2500 mg/kg, 48 h", "result": "1/10"}, {"measurement": "Number of deaths/number of treated animals", "setting": "[3]; oral 2500 mg/kg, 72 h", "result": "1/10"}, {"measurement": "Number of deaths/number of treated animals", "setting": "[3]; oral 2500 mg/kg, 96 h", "result": "3/10"}, {"measurement": "Number of deaths/number of treated animals", "setting": "[3]; oral 2500 mg/kg, 120 h", "result": "4/10"}, {"measurement": "Number of deaths/number of treated animals", "setting": "[3]; oral 2500 mg/kg, 144 h", "result": "6/10"}, {"measurement": "Number of deaths/number of treated animals", "setting": "[3]; oral 2500 mg/kg, 168 h", "result": "7/10"}, {"measurement": "Number of deaths/number of treated animals", "setting": "[3]; oral 3000 mg/kg, 24 h", "result": "0/10"}, {"measurement": "Number of deaths/number of treated animals", "setting": "[3]; oral 3000 mg/kg, 48 h", "result": "1/10"}, {"measurement": "Number of deaths/number of treated animals", "setting": "[3]; oral 3000 mg/kg, 72 h", "result": "3/10"}, {"measurement": "Number of deaths/number of treated animals", "setting": "[3]; oral 3000 mg/kg, 96 h", "result": "4/10"}, {"measurement": "Number of deaths/number of treated animals", "setting": "[3]; oral 3000 mg/kg, 120 h", "result": "5/10"}, {"measurement": "Number of deaths/number of treated animals", "setting": "[3]; oral 3000 mg/kg, 144 h", "result": "7/10"}, {"measurement": "Number of deaths/number of treated animals", "setting": "[3]; oral 3000 mg/kg, 168 h", "result": "7/10"}, {"measurement": "Inhibition of kaolin oedema", "setting": "[4]; [6]", "result": "9.8% and 10.6%"}, {"measurement": "oedema, treated", "setting": "[4]; [6]", "result": "2.39±0.36 and 2.28±0.50"}, {"measurement": "Inhibition of kaolin oedema", "setting": "[4]; [7]", "result": "15.1% and 19.0%"}, {"measurement": "oedema, treated", "setting": "[4]; [7]", "result": "2.54±0.53 and 2.35±0.54"}, {"measurement": "Inhibition of kaolin oedema", "setting": "[4]; [8]", "result": "22.2% and 15.1%"}, {"measurement": "oedema, treated", "setting": "[4]; [8]", "result": "2.56±0.53 and 2.77±0.58"}, {"measurement": "Inhibition of kaolin oedema", "setting": "[4]; [9]", "result": "11.0% and 13.6%"}, {"measurement": "oedema, treated", "setting": "[4]; [9]", "result": "2.27±0.30 and 2.46±0.49"}, {"measurement": "Inhibition of kaolin oedema", "setting": "[4]; [10]", "result": 22.1, "unit": "%"}, {"measurement": "oedema, treated", "setting": "[4]; [10]", "result": "2.26±0.30 and 2.47±0.41"}, {"measurement": "Inhibition of kaolin oedema", "setting": "[4]; [11]", "result": "24.7% and 29.9%"}, {"measurement": "oedema, treated", "setting": "[4]; [11]", "result": "2.48±0.36 and 2.72±0.62"}, {"measurement": "Inhibition of kaolin oedema", "setting": "[4]; [12]", "result": 19.5, "unit": "%"}, {"measurement": "oedema, treated", "setting": "[4]; [12]", "result": "1.86±0.32"}, {"measurement": "Inhibition of kaolin oedema", "setting": "[4]; [13]", "result": 24.6, "unit": "%"}, {"measurement": "oedema, treated", "setting": "[4]; [13]", "result": "2.05±0.30"}, {"measurement": "Inhibition of kaolin oedema", "setting": "[4]; [14]", "result": 26.4, "unit": "%"}, {"measurement": "oedema, treated", "setting": "[4]; [14]", "result": "2.23±0.28"}, {"measurement": "Perished animals/total animals, Sum", "setting": "[5]; oral 27.3 mg./kg., 1st month", "result": "1/10"}, {"measurement": "Perished animals/total animals", "setting": "[5]; oral 54.7 mg./kg., 2nd month", "result": "1/9"}, {"measurement": "Perished animals/total animals, Sum", "setting": "[5]; oral 54.7 mg./kg., through 2nd month", "result": "2/10"}, {"measurement": "Perished animals/total animals", "setting": "[5]; oral 80.0 mg./kg., 3rd month", "result": "2/8"}, {"measurement": "Perished animals/total animals, Sum", "setting": "[5]; oral 80.0 mg./kg., through 3rd month", "result": "4/10"}, {"measurement": "toxicity compared with Indomethacine", "setting": "[5]; rats (and mice), oral", "result": "far less toxic than Indomethacine not only on mice but also on rats"}, {"measurement": "perishment during the observation period compared with Indomethacine", "setting": "[5]; rats, oral, observation period", "result": "the same as for Indomethacine"}]}
